Read-outs that look alike come from different tables or passages of the source.
Assays:
S7dexΓ -1 cells = test: Reversal of puromycin resistance in the S7dex-1 cell line (turbidity at 660 nm); format: cell-based, murine
Description: I. Reversal of Puromycin Resistance in the S7dexΓ -1 Cell Line
The S7dexΓ- 1 cell line is a glucocorticoid resistant derivative of the S7CD-5 cell line. It was selected on the basis of its resistance to the glucocorticoid agonist triamcinolone acetonide (5×10^-7 M) from S7CD-5 cells that had been mutagenized with N-methyl-N'-nitro-N-nitrosoguanidine. The apoptic response to glucocorticoid agonists is not elicited in the S7dexΓ -1 cells. Thus, murine S7dexΓ -1 cells were distributed (5×10^4cells/ml, 1 ml/well) into multiwell dishes and incubated for 5 days with 20 μM puromycin and increasing concentrations of test compound. At the end of the incubation period, the turbidity values (at 660 nm) for each set of cultures were measured and expressed relative to cells that were incubated without test compound. These values represent the ability of test compound to reverse S7dexΓ -1 resistance to 20 μM puromycin, as reflected by the relative amount of cell proliferation under a given set of growth conditions. The number of repetitions of each value presented in the first data column of Table 1 are indicated in parenthesis after each entry. In the Table, the ED50 values reflect the concentration of chemosensitizer that causes the Relative Turbidity value to be reduced by 50%.

CEM/VLB100 cells = test: Reversal of vinblastine resistance in the CEM/VLB100 cell line (turbidity at 660 nm); format: cell-based, human
Procedure: (§1) Human CEM/VLB100 cells were distributed (5×10^4 cells/ml, 1 ml/well) into multiwell dishes and incubated for 5 days with 30 nM vinblastine and increasing concentrations of test compound, as indicated in the Figure. At the end of the incubation period, the turbidity values (at 660 nm) for each set of cultures were measured and expressed relative to cells that were incubated without test compound. These values represent the ability of test compound, relative to control (i.e., verapamil) to reverse CEM/VLB100 resistance to 30 nM vinblastine, as reflected by the relative amount of cell proliferation under a given set of growth conditions. Each value shown in the Figures is the average of 2 separate determinations.
II. Reversal of Vinblastine Resistance in the CEM/VLB100 Cell Line
as §1, with “The CEM/VLB100 cell line is a derivative of human CEM cells, selected for resistance to vinblastine. This cell line expresses the human MDR1 gene.” for “Human”, “FIG. 2.” for “the Figure.”, “compound” for “compound, relative to control (i.e., verapamil)”, “FIG. 2” for “the Figures”, “determinations. Results are also presented in the second data column of Table 1, wherein the ED50 values reflect the concentration of chemosensitizer that causes the Relative Turbidity value to be reduced by 50%.” for “determinations.”

[1] = test system: murine thymoma W7TB cells; test: Glucocorticoid agonist activity: glucocorticoid-induced apoptosis of murine thymoma W7TB cells (turbidity at 660 nm); format: cell-based; settings: Mus musculus, 120 h, 5 days, agonist concentration that reduces Relative Turbidity to 50%, read-out: LD50 ^3
Procedure: FIG. 1 presents the results of an evaluation of the glucocorticoid agonist activity of several steroid analogs. The glucocorticoid-induced apoptosis of murine thymoma W7TB cells was taken as a measure of the agonist activity of steroid analogs. Murine W7TB cells were distributed (5×10^4 cells/ml/well) into multiwell dishes and incubated for 5 days with increasing concentrations of test compound, as indicated in the Figure. At the end of the incubation period, the turbidity values (at 660 nm) for each set of cultures were measured and expressed relative to cells that were incubated without test compound. These values represent the effect of test compound on the relative amount of cell proliferation under a given set of growth conditions. Each value shown in the Figures is the average of 2 separate determinations.
The glucocorticoid agonist activity of several steroid analogs was evaluated by determining the glucocorticoid-induced apoptosis of murine thymoma W7TB cells. Thus, murine W7TB cells were distributed (5×10^4 cells/ml/well) into multiwell dishes and incubated for 5 days with increasing concentrations of test compound, as indicated in FIG. 1. Dichlorisone is 1,4-pregnadiene-9α, 11β-dichloro-17α-21-diol-3,20-dione; "SA 44" is the 3,4-dimethoxy benzoic acid ester of dichlorisone; and "SA 47" is the 4-dimethylamino benzoic acid ester of dichlorisone. "17-DOD" is 17-deoxydexamethasone (i.e., 1,4-pregnadien-9α-fluoro-16αmethyl-11β,21-diol-3,20-dione); "SA 45" is the 4-dimethylamino benzoic acid ester of 17-DOD; and "SA 54" is the N-benzylcarbamate of 17-DOD.
At the end of the incubation period, the turbidity values (at 660 nm) for each set of cultures were measured and expressed relative to cells that were incubated without test compound. These values represent the effect of test compound on the relative amount of cell proliferation under a given set of growth conditions. Each value shown in FIGS. 1A and 1B is the average of 2 separate determinations. Results are also presented in the third data column of Table 1, wherein LD50 values reflect the agonist concentration that causes the Relative Turbidity value to be reduced to 50%.

[2] = S7dex1 cells, 5 days with 20 μM puromycin; chemosensitizer concentration that reduces Relative Turbidity by 50%; read-out: ED50 ^1
[3] = 5 days with 30 nM vinblastine, chemosensitizer concentration that reduces Relative Turbidity by 50%, read-out: ED50 ^2
[4] = read-out: ED50 ^1; S7dex1 cells, 5 days with 20 μM puromycin; chemosensitizer concentration that reduces Relative Turbidity by 50%
[5] = read-out: ED50 ^2, 5 days with 30 nM vinblastine, chemosensitizer concentration that reduces Relative Turbidity by 50%

C[C@@H]1C[C@H]2[C@@H]3CCC4=CC(=O)C=C[C@]4(C)[C@@]3(F)[C@@H](O)C[C@]2(C)[C@H]1C(=O)CO [17-DOD, 1,4-Pregnadien-9α-fluoro-16α-methyl-11β,21-diol-3, 20-dione, reference compound]
IC50 (S7dexΓ -1 cells; [2]): 2700 nM
IC50 (CEM/VLB100 cells; [3]): > 8000 nM
IC50 [1]: 5.3 nM

C[C@]12C=CC(=O)C=C1CC[C@H]1[C@@H]3CC[C@](O)(C(=O)CO)[C@@]3(C)C[C@H](Cl)[C@@]12Cl [Dichlorisone, 1,4-pregnadiene-9α,11β-dichloro-17α-21-diol-3,20-dione, reference compound]
IC50 (S7dexΓ -1 cells; [4]): > 8000 nM
IC50 (CEM/VLB100 cells; [5]): > 8000 nM
IC50 [1]: 7.5 nM

CC(=O)[C@H]1CC[C@H]2[C@@H]3CCC4=CC(=O)CC[C@]4(C)[C@H]3CC[C@]12C [Progesterone, reference compound]
IC50 (S7dexΓ -1 cells; [2]): 1600 nM
IC50 (CEM/VLB100 cells; [3]): > 8000 nM
IC50 [1]: 2400 nM

COc1ccc(C(=O)OCC(=O)[C@H]2[C@H](C)C[C@H]3[C@@H]4CCC5=CC(=O)C=C[C@]5(C)[C@@]4(F)[C@@H](O)C[C@@]32C)cc1OC [SA 43, 1,4-Pregnadien-9α-fluoro-16α-methyl-11β,21-diol-3,20-dione,21-(3 ,4-dimethoxybenzoate)]
IC50 (CEM/VLB100 cells; [3]): 1200 nM
IC50 [1]: 18 nM

COc1ccc(C(=O)OCC(=O)[C@@]2(O)CC[C@H]3[C@@H]4CCC5=CC(=O)C=C[C@]5(C)[C@@]4(Cl)[C@@H](Cl)C[C@@]32C)cc1OC [SA 44, 1,4-Pregnadien-9α11β-dichloro-17α,21-diol-3,20-dione, 21-(3,4-dimethoxybenzoate)]
IC50 (S7dexΓ -1 cells; [2]): 440 nM
IC50 (CEM/VLB100 cells; [3]): 2500 nM
IC50 [1]: 14 nM

C[C@@H]1C[C@H]2[C@@H]3CCC4=CC(=O)C=C[C@]4(C)[C@@]3(F)[C@@H](O)C[C@]2(C)[C@H]1C(=O)COC(=O)c1ccc(N(C)C)cc1 [SA 45, 1,4-Pregnadien-9α-fluoro-16αmethyl-11β,21-diol-3 20-dione, 21-(4-dimethylaminobenzoate)]
IC50 (S7dexΓ -1 cells; [2]): 360 nM
IC50 (CEM/VLB100 cells; [3]): 2700 nM
IC50 [1]: 34 nM

CN(C)c1ccc(C(=O)OCC(=O)[C@@]2(O)CC[C@H]3[C@@H]4CCC5=CC(=O)C=C[C@]5(C)[C@@]4(Cl)[C@@H](Cl)C[C@@]32C)cc1 [SA 47, 1,4-Pregnadien-9α,11β-dichloro-17α,21-diol-3,20-dione, 21-(4-dimethylaminogenzoate)]
IC50 (S7dexΓ -1 cells; [2]): 450 nM
IC50 (CEM/VLB100 cells; [3]): 1100 nM
IC50 [1]: 13 nM

CC(=O)[C@H]1[C@H](C)C[C@H]2[C@@H]3CCC4=CC(=O)C=C[C@]4(C)[C@@]3(F)[C@@H](O)C[C@@]21C [SA 50, 1,4-Pregnadien-9αfluoro-16αmethyl-11β-ol-3 20-dione]
IC50 (S7dexΓ -1 cells; [2]): 530 nM
IC50 (CEM/VLB100 cells; [3]): > 8000 nM
IC50 [1]: 9 nM

C[C@@H]1C[C@H]2[C@@H]3CCC4=CC(=O)C=C[C@]4(C)[C@@]3(F)[C@@H](O)C[C@]2(C)[C@H]1C(=O)COC(=O)NCc1ccccc1 [SA 54, 1,4-Preqnadien-9αfluoro-16αmethyl-11β,21-diol-3 20-dione, 21-(N-benzylcarbamate)]
IC50 (S7dexΓ -1 cells; [2]): 420 nM
IC50 (CEM/VLB100 cells; [3]): 1800 nM
IC50 [1]: 250 nM

COc1ccc(CCN(C)CCCC(C#N)(c2ccc(OC)c(OC)c2)C(C)C)cc1OC (stereo not shown) [Verapainil, verapamil, reference compound]
IC50 (S7dexΓ -1 cells; [4]): 760 nM
IC50 (CEM/VLB100 cells; [5]): 1300 nM

— patent US5767113A, “Compounds useful for concurrently activating glucocorticoid-induced response and reducing multidrug resistance” (The Salk Institute For Biological Studies, priority 1995, dated 1998)
